For 7 compounds, GI50 and TGI results are on record in PubChem BioAssay (NCI).

Some test systems named below: A498 renal; HL-60(TB) leukemia; HOP-62 NSCLC; HS 578T breast; K-562 leukemia; MALME-3M melanoma; NCI-H522 lung; OVCAR-8 ovarian; T-47D breast; UO-31 renal.
Common to all, as to experiment: NCI-60 cell line screen, 48 h

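Interpolation was linear, between the two tested concentrations surrounding the appropriate level; five concentrations were tested over 48 hours in 96-well plates. The concentration for 50% growth inhibition is given as GI50. TGI marks complete inhibition of growth.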 Bounds are passed on as bounds.

On to `COc1ccc(S(=O)(=O)N(Cc2ccc3c(n2)C=CC(C)(C)O3)C2CCC2)cc1OC`, for which the GI50 with A498 renal, with HL-60(TB) leukemia, in the assay with HOP-62 NSCLC, in the assay with HS 578T breast, in the assay with K-562 leukemia and with MALME-3M melanoma was less than 10 nM throughout. For the same compound, the GI50 in the assay with NCI-H522 lung, with OVCAR-8 ovarian, with T-47D breast and in the assay with UO-31 renal was less than 10 nM throughout. Besides, the TGI with A498 renal was 43.1 nM; with HL-60(TB) leukemia, 24.9 nM; in the assay with HOP-62 NSCLC, 1290 nM; with HS 578T breast it was 67.7 nM; in the assay with K-562 leukemia it was greater than 100000 nM; with MALME-3M melanoma, 20.9 nM. Further, the TGI is 76.8 nM in the assay with NCI-H522 lung, 231 nM in the assay with T-47D breast and 871 nM in the assay with UO-31 renal.

`COC(=O)[C@]12CCC(C)(C)C[C@H]1C1=CC[C@@H]3[C@@]4(C)C/C(=C/c5cccnc5)C(=O)C(C)(C)[C@@H]4CC[C@@]3(C)[C@]1(C)CC2`: the GI50 is 11600 nM with A498 renal; 2060 nM with HL-60(TB) leukemia; 13600 nM in the assay with HOP-62 NSCLC; 22700 nM in the assay on HS 578T breast; 3200 nM in the assay on K-562 leukemia; 5240 nM in the assay with MALME-3M melanoma. Moreover, the GI50 with NCI-H522 lung is 8580 nM; in the assay with OVCAR-8 ovarian, 3820 nM; with T-47D breast, 2960 nM; in the assay with UO-31 renal, 3210 nM. The TGI was 26400 nM with A498 renal; 5200 nM with HL-60(TB) leukemia; 67000 nM with HOP-62 NSCLC; greater than 100000 nM with HS 578T breast; greater than 100000 nM in the assay with K-562 leukemia; 18200 nM in the assay on MALME-3M melanoma. In addition, the TGI with NCI-H522 lung was determined as 28700 nM; in the assay with OVCAR-8 ovarian, 60800 nM; in the assay on T-47D breast it was 28000 nM; in the assay with UO-31 renal, 24400 nM.

On to `COc1cc([C@@H]2c3cc4c(cc3C(O[C@@H]3O[C@@H]5CO[C@@H](c6cccs6)OC5[C@H](O)[C@H]3O)C3COC(=O)[C@@H]32)OCO4)cc(OC)c1O` (stereo partly specified), for which the GI50 with A498 renal is 63.5 nM; with HL-60(TB) leukemia, 10.4 nM; in the assay with HOP-62 NSCLC, 28.3 nM; in the assay on HS 578T breast, 241 nM; in the assay on K-562 leukemia it was 111 nM; in the assay on MALME-3M melanoma it was 76.8 nM. In addition, the GI50 in the assay with NCI-H522 lung was 36.9 nM; in the assay with OVCAR-8 ovarian, 85.6 nM; with T-47D breast, 20.7 nM; in the assay with UO-31 renal, 179 nM. In addition, the TGI in the assay with A498 renal is 551 nM; in the assay with HL-60(TB) leukemia, 52.7 nM; in the assay on HOP-62 NSCLC it was 137 nM; in the assay with HS 578T breast, 5030 nM; with K-562 leukemia it was 19300 nM; in the assay on MALME-3M melanoma, 1020 nM. For the same compound, the TGI was determined as 396 nM in the assay on NCI-H522 lung, 1090 nM in the assay on OVCAR-8 ovarian, 434 nM with T-47D breast and 1140 nM with UO-31 renal.

Consider `COc1ccc(OC(=O)O[C@H]2[C@H](O[C@H]3[C@@H](O)COC(O[C@H]4C[C@H]5[C@@H]6CC=C7C[C@@H](O)CC[C@]7(C)[C@H]6CC[C@]5(C)[C@H]4[C@H](C)C(=O)CCC(C)C)[C@@H]3OC(C)=O)OC[C@@H](O)[C@@H]2O)cc1` (stereo partly specified), for which the GI50 is 11.6 nM with A498 renal; 68.6 nM with HL-60(TB) leukemia; 56.9 nM in the assay with HOP-62 NSCLC; less than 10 nM in the assay with HS 578T breast; less than 10 nM with K-562 leukemia; 122 nM in the assay with MALME-3M melanoma. In addition, the GI50 in the assay on NCI-H522 lung was 165 nM; with OVCAR-8 ovarian, 12700 nM; in the assay with T-47D breast, 50.5 nM; in the assay with UO-31 renal it was 87.4 nM. The TGI in the assay on A498 renal is 55.9 nM; with HL-60(TB) leukemia, 18700 nM; in the assay with HOP-62 NSCLC it was 11400 nM; in the assay with HS 578T breast it was 185 nM; in the assay on K-562 leukemia, 10600 nM; in the assay on MALME-3M melanoma it was 3840 nM. For the same compound, the TGI in the assay with NCI-H522 lung is 2100 nM; in the assay with OVCAR-8 ovarian, 50600 nM; in the assay on T-47D breast, 19800 nM; in the assay on UO-31 renal, 995 nM.

With `C[C@]12CC[C@@H]3c4ccc(O)cc4C[C@@H](CCCCCCCCCS(=O)CCCC(F)(F)C(F)(F)F)[C@H]3[C@@H]1CC[C@@H]2O` (stereo partly specified), the GI50 with A498 renal is greater than 100000 nM; with HL-60(TB) leukemia, 6530 nM; in the assay with HOP-62 NSCLC it was greater than 67400 nM; in the assay on HS 578T breast, greater than 100000 nM; with MALME-3M melanoma it was greater than 100000 nM; in the assay on NCI-H522 lung it was greater than 26200 nM. Moreover, the GI50 in the assay with OVCAR-8 ovarian was greater than 100000 nM; in the assay with T-47D breast, 710 nM; with UO-31 renal, greater than 100000 nM. Further, the TGI in the assay on A498 renal, in the assay with HL-60(TB) leukemia, with HOP-62 NSCLC, in the assay on HS 578T breast, with MALME-3M melanoma and in the assay with NCI-H522 lung was greater than 100000 nM throughout. Also, the TGI with OVCAR-8 ovarian, in the assay on T-47D breast and in the assay on UO-31 renal was greater than 100000 nM throughout.

As for `C[C@]12CC[C@@H]3c4ccc(O)cc4CC[C@H]3[C@@H]1CC[C@@H]2NS(=O)(=O)c1ccc(C(F)(F)F)cc1`, the GI50 in the assay on A498 renal is 1250 nM; in the assay with HOP-62 NSCLC, 2000 nM; in the assay with HS 578T breast it was 2230 nM; with K-562 leukemia, 3160 nM; in the assay with MALME-3M melanoma, 2030 nM; with NCI-H522 lung, 1690 nM. Further, the values for the GI50 with OVCAR-8 ovarian, in the assay with T-47D breast and in the assay with UO-31 renal were 2540 nM, 2680 nM and 1600 nM, respectively. The TGI with A498 renal is 2740 nM; in the assay on HOP-62 NSCLC, 3700 nM; in the assay on HS 578T breast, 6010 nM; in the assay on K-562 leukemia, 8690 nM; in the assay on MALME-3M melanoma, 4370 nM; in the assay with NCI-H522 lung it was 3850 nM. Further, the TGI in the assay with OVCAR-8 ovarian amounted to 6950 nM; in the assay on T-47D breast, 6320 nM; in the assay with UO-31 renal, 3430 nM.

As for `Cc1cc(C)cc(Nc2cc(C)nc3nc(C(F)(F)F)nn23)c1`, the GI50 was 29000 nM with A498 renal; greater than 100000 nM in the assay on HL-60(TB) leukemia; 44000 nM in the assay on HOP-62 NSCLC; 34900 nM with HS 578T breast; greater than 100000 nM in the assay with MALME-3M melanoma; greater than 100000 nM in the assay with OVCAR-8 ovarian. Also, the GI50 in the assay with T-47D breast and with UO-31 renal was greater than 100000 nM in each case. The TGI in the assay on A498 renal, with HL-60(TB) leukemia, with HOP-62 NSCLC, in the assay with HS 578T breast, in the assay with MALME-3M melanoma and in the assay with OVCAR-8 ovarian was greater than 100000 nM throughout. Moreover, the TGI with T-47D breast and in the assay on UO-31 renal was greater than 100000 nM throughout.
